Data published in patent US4954509A, “Isoquinoline derivatives and their use as analgesics” (Dr. Lo. Zambeletti S.p.A., priority 1988, dated 1990).
Counter-ions that a name gives are not always drawn. Like-named read-outs stand apart in the source and are kept apart here.

Key:
MU opiate receptor = molecular target: T1, MU opiate receptor (Cavia porcellus, UniProt A0ACM8Q262); experiment: opiate receptors binding, MU (3H-DAGO, guinea pig brain homogenate)
T1 construct: 3H-DAGO displacement
Protocol: Radio receptor binding to μ and K sites is performed on fresh guinea pig brain homogenate prepared according to Kosterlitz.
(§1) Whole brain without cerebellum is homogenized in 50 mM, Tris-buffer (pH 7.4 at 0° C.) and centrifuged at 49,000×g×10 min.
The pellet is then resuspended in the same buffer, incubated at 37° C. for 45 min. and centrifuged again. 1.9ml of the final homogenate (1:100 in Tris-pH 7.4, 0° C.) is used for the binding assay.
The filters are then dryed, solubilized in Filtercount and the radioactivity monitored. Non specific binding
is determined in the presence of 10-6M Naloxone.

mice [1] = experiment: tail-flick test in mice; type: in vivo, mouse (male Charles River, Swiss Strain); conditions: subcutaneous, calculated as the free base, 30 min pretreatment; for ED50: Mus musculus, sc, 0.5 h; for MOUSE TAIL-FLICK ED50: 30 min
Protocol: (B) Tail-flick test in mice
The methodology employed is based on that described by D'Amour and Smith, J. Pharmacol. Exp. Ther. 72, 74/1941.
Male Charles River mice (Swiss Strain), 22-34g body weight were used. Animals were allowed food and water ad libitum and were randomized into groups of 10 prior to experimentation.
Test compounds were dissolved in either distilled water or distilled water plus 0.1 M AMS and administered by the subcutaneous route in a final volume of 10 ml/Kg. Control animals received 10 ml/kg of the appropriate vehicle alone. Following a pretreatment period of 30 min., the mice were again placed under the heat source and the reaction tine re-determined.
Percentage quantal protection was determined as the number of mice in which the reaction time was doubled compared to pretreatment values, expressed as a percentage of the total number of mice in the group.

mice [2] = experiment: p-phenylquinone-induced abdominal writhing test in mice; type: in vivo, mouse (male Charles River, Swiss Strain); conditions: Mus musculus, sc, 20 min; subcutaneous; calculated as the free base; 20 min pretreatment, p-phenylquinone 2 mg/Kg i.p.
Protocol: (A) P-phenylquinone-induced abdominal writhing test in mice
The methodology employed is based on that described by Sigmund et al, Proc. Soc. Exptl. Biol. 95, 729/1957, modified by Milne and Twomey, Agents and Actions, 10, 31/1980.
Male Charles River mice (Swiss Strain), 25-36g body weight, were used. Animals were allowed food and water ad libitum and were randomized into groups of 10 prior to experimentation. Test compounds were dissolved in either distilled water or distilled water plus 0.1 M AMS, and administered by the subcutaneous route in a final volume of 10 ml/Kg. Control animals received 10 ml/Kg of the appropriate vehicle alone. Following a pretreatment period of 20 min., mice were injected intraperitoneally with p-phenylquinone, 2 mg/Kg at 37° C. in a final volume of […]. […] During this period the number of abdominal writhing responses per animal were recorded where writhing consists of an intermittent contraction of the abdomen associated with hind leg extension.
The degree of antinociceptive protection afforded by the test compound was determined as the mean number of writhing responses observed in the treated group (T) expressed as a percentage of the mean number of writhing responses in the control group (C) according to the following formula:
[1-(T/C]×100%=% graded protection

KAPPA opiate receptor = molecular target: T2, KAPPA opiate receptor (Cavia porcellus, UniProt P41144); experiment: opiate receptors binding, KAPPA (3H-Ethyl Ketocyclazocine, guinea pig brain homogenate)
T2 construct: fresh guinea pig brain homogenate; from tissue; host or cells: guinea pig whole brain without cerebellum, fresh homogenate
Protocol: Radio receptor binding to μ and K sites is performed on fresh guinea pig brain homogenate prepared according to Kosterlitz. (1981).
as §1
The pellet is then resuspended in the same buffer, incubated at 37° C. for 45 min. and centrifuged again. 1.9ml of the final homogenate (1:100 in Tris-pH 7.4, 0° C.) is used for the binding assay. Binding to […] sites (Magnan J., 1982) 1 3H [D-Ala2, MePhe4, Gly-o15]Enkephalin (3H-DAGO), an
is determined in the presence of 10-6M Naloxone. 1 Binding to K sites (Magnan J., 1982)
The binding to the K-sites is performed using 3H-Ethyl Ketocyclazocine, a non-selective benzomorphan compound which binds to μ, δ and K-sites, in the presence of 100nM of unlabelled DAGO and 100nM of the enkephalin analogue [DAla^2 -DLeu^5 ]Enkephalin (DADLE), to prevent μ and δ binding respectively.
Final homogenate with solutions of the cold ligand and of the labelled ligand is incubated for 40 min. at 25° C., filtered through Whatman GF/C glass filter discs and washed.
The radioactivity bound to the filters is counted by liquid scintillation spectrophotometry.
The non-specific binding is determined in the presence of 500nM of the benzomorphan non-selective compound Mr 2266.
The equilibrium dissociation constant (KD) and the maximum binding capacity (Bmax) are determined from the analysis of saturation curves, while the inhibition constant (Ki) is determined from the analysis of competition experiments (Hill 1910; Scatchard 1949; Cheng and Prusoff 1973; Gillan et al. 1980).

[3] = fresh guinea pig brain homogenate, 25° C., 40 min, read-out: OPIATE RECEPTORS BINDING MU Ki
[4] = read-out: OPIATE RECEPTORS BINDING MU Ki, fresh guinea pig brain homogenate, 25° C., 40 min

T1 sequence (A0ACM8Q262 1-400): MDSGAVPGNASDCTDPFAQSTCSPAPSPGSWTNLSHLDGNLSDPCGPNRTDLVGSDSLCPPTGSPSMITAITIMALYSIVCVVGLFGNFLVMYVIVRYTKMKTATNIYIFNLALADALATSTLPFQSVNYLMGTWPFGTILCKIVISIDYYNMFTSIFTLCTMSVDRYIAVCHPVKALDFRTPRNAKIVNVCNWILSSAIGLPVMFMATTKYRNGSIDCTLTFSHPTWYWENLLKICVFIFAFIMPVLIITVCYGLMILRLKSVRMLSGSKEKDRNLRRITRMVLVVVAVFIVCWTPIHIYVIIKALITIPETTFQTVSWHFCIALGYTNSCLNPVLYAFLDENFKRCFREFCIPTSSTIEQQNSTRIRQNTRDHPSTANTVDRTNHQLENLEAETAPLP
T2 sequence (P41144 whole entry): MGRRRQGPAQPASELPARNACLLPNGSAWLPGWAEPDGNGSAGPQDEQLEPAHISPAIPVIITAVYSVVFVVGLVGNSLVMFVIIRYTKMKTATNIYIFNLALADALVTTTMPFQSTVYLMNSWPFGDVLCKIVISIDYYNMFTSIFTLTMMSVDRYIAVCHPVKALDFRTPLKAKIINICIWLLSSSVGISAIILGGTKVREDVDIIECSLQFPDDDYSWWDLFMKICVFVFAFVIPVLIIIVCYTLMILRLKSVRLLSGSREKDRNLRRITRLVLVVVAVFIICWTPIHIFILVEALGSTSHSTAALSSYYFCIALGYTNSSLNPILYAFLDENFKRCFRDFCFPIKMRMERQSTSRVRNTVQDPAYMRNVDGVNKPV

CSc1cccc2c1CCN(C(=O)Cc1ccc(Cl)c(Cl)c1)C2CN1CCCC1 (stereo not shown) [Example 32, 1-(pyrrolidin-1-yl)methyl-2-(3,4-dichlorophenyl)acetyl-5-methylthio-1,2,3,4-tetrahydroisoquinoline hydrochloride]
Ki (MU opiate receptor; [3]): 442 nM
ED50 (mice [1]): 0.365 mg/kg
ED50 (mice [2]): 0.202 mg/kg

O=C(Cc1ccc(Cl)c(Cl)c1)N1CCc2c(Cl)cccc2C1CN1CCCC1 (stereo not shown) [Example 7, 1-(pyrrolidin-1-yl)methyl-2-(3,4-dichlorophenyl)acetyl-5-chloro-1,2,3,4-tetrahydroisoquinoline hydrochloride]
Ki (MU opiate receptor; [3]): 1580 nM
ED50 (mice [1]): 0.836 mg/kg
Ki (KAPPA opiate receptor): 43.6 nM

COc1cccc2c1CCN(C(=O)Cc1ccc(Cl)c(Cl)c1)C2CN1CCCCC1 (stereo not shown) [Example 36, 1-(piperidin-1-yl)methyl-2-(3,4-dichlorophenyl)acetyl-5-methoxy-1,2,3,4-tetrahydroisoquinoline hydrochloride]
Ki (MU opiate receptor; [3]): ~1000 nM
ED50 (mice [1]): 0.924 mg/kg
ED50 (mice [2]): 0.163 mg/kg

CC1CN(C(=O)Cc2ccc(Cl)c(Cl)c2)C(CN2CCCC2)c2ccccc21 (single isomer, unassigned) [Example 44, (-)-1-(pyrrolidin-1-yl)methyl-2-(3,4-dichlorophenyl)acetyl-4-methyl-1,2,3,4-tetrahydroisoquinoline D(-) tartrate]
Ki (MU opiate receptor; [4]): 56.5 nM
ED50 (mice [1]): 0.025 mg/kg
ED50 (mice [2]): 0.013 mg/kg

COc1ccc2c(c1OC)CCN(C(=O)Cc1ccc(Cl)c(Cl)c1)C2CN1CCCC1 (stereo not shown) [Example 39, 1-(pyrrolidin-1-yl)methyl-2-(3,4-dichlorophenyl)acetyl-5,6-dimethoxy-1,2,3,4-tetrahydroisoquinoline hydrochloride]
ED50 (mice [1]): > 1 mg/kg

O=C(Cc1ccc(Cl)c(Cl)c1)N1CCc2c(O)cccc2C1CN1CCCC1 (single isomer, unassigned; (-)) [Example 54, (-)-1-(pyrrolidin-1-yl)methyl-2-(3,4-dichlorophenyl)acetyl-5-hydroxy-1,2,3,4-tetrahydroisoquinoline hydrochloride]
ED50 (mice [1]): 0.006 mg/kg
ED50 (mice [2]): 0.0022 mg/kg

C[C@H]1Cc2ccccc2[C@H](CN2CCCC2)N1C(=O)Cc1ccc(Cl)c(Cl)c1 (relative stereo) [Example 2, 1-(pyrrolidin-1-yl)methyl-2-(3,4-dichlorophenyl)acetyl-3-methyl-1,2,3,4-tetrahydroisoquinoline hydrochloride hemihydrate acetone. Diastereoisomer TRANS]
ED50 (mice [1]): > 1 mg/kg
Ki (KAPPA opiate receptor; fresh guinea pig brain homogenate, 3H-Ethyl Ketocyclazocine with 100nM DAGO and 100nM DADLE, 25° C., 40 min, read-out: OPIATE RECEPTORS BINDING KAPPA Ki): 1 to 50 nM

CC1c2ccccc2C(CN2CCCC2)N(C(=O)Cc2ccc(Cl)c(Cl)c2)C1C (single isomer, unassigned; diastereoisomer b) [Example 46, 1-(pyrrolidin-1-yl)methyl-2-(3,4-dichlorophenyl)acetyl-3,4-dimethyl-1,2,3,4-tetrahydroisoquinoline diastereoisomer B]
MOUSE TAIL-FLICK ED50 (mice [1]): 0.048 mg/kg
ED50 (mice [2]): 0.011 mg/kg

COc1cccc2c1CCN(C(=O)Cc1ccc(C(F)(F)F)cc1)C2CN1CCCCC1 (stereo not shown) [Example 35, 1-(piperidin-1-yl)methyl-2-(4-trifluoromethylphenyl)acetyl5-methoxy-1,2,3,4-tetrahydroisoquinoline hydrochloride]
Ki (MU opiate receptor; [3]): ~1000 nM
ED50 (mice [1]): 0.689 mg/kg
ED50 (mice [2]): 0.204 mg/kg

O=C(Cc1ccc(C(F)(F)F)cc1)N1CCc2c(O)cccc2C1CN1CCCCC1 (stereo not shown) [Example 37, 1-(piperidin-1-yl)methyl-2-(4-trifluoromethylphenyl)acetyl5-hydroxy-1,2,3,4-tetrahydroisoquinoline hydrochloride]
Ki (MU opiate receptor; [4]): 5.38 nM
ED50 (mice [1]): 0.007 mg/kg
ED50 (mice [2]): 0.0013 mg/kg

O=C(Cc1ccc(Cl)c(Cl)c1)N1CCc2c(ccc(O)c2O)C1CN1CCCC1 (stereo not shown) [Example 40, 1-(pyrrolidin-1-yl)methyl-2-(3,4-dichlorophenyl)acetyl-5,6-dihydroxy-1,2,3,4-tetrahydroisoquinoline hydrochloride]
Ki (MU opiate receptor; [4]): 49.2 nM
ED50 (mice [1]): 0.461 mg/kg
ED50 (mice [2]): 0.429 mg/kg

O=C(Cc1ccc(Cl)c(Cl)c1)N1CCc2c(O)cccc2C1CN1CCCCC1 (stereo not shown) [Example 38, 1-(piperidin-1-yl)methyl-2-(3,4-dichlorophenyl)acetyl-5-hydroxy-1,2,3,4-tetrahydroisoquinoline hydrochloride]
Ki (MU opiate receptor; [4]): 11.4 nM
ED50 (mice [1]): 0.01 mg/kg
ED50 (mice [2]): 0.004 mg/kg

CC1c2ccccc2C(CN2CCCCC2)N(C(=O)Cc2ccc(Cl)c(Cl)c2)C1C (single isomer, unassigned; diastereoisomer b) [Example 49, 1-(piperidin-1-yl)methyl-2-(3,4-dichlorophenyl)acetyl-3,4-dimethyl-1,2,3,4-tetrahydroisoquinoline diastereoisomer B.]
ED50 (mice [1]): 0.077 mg/kg
ED50 (mice [2]): 0.038 mg/kg

O=C(Cc1ccc(Cl)c(Cl)c1)N1CC(c2ccccc2)c2ccccc2C1CN1CCCC1 (single isomer, unassigned; diastereoisomer b) [Example 50, 1-(pyrrolidin-1-yl)methyl-2-(3,4-dichlorophenyl)acetyl-4-phenyl-1,2,3,4-tetrahydroisoquinoline hydrochloride monohydrate diastereoisomer B]
ED50 (mice [1]): 20 mg/kg

O=C(Cc1ccc(C(F)(F)F)cc1)N1CCc2c(O)cccc2C1CN1CCCC1 (stereo not shown) [Example 34, 1-(pyrrolidin-1-yl)methyl-2-(4-trifluoromethylphenyl)acetyl5-hydroxy-1,2,3,4-tetrahydroisoquinoline hydrochloride hemihydrate]
Ki (MU opiate receptor; [4]): 0.59 nM
ED50 (mice [1]): 0.011 mg/kg
ED50 (mice [2]): 0.0023 mg/kg

CC(=O)Oc1cccc2c1CCN(C(=O)Cc1ccc(Cl)c(Cl)c1)C2CN1CCCC1 (stereo not shown) [Example 52, 1-(pyrrolidin-1-yl)methyl-2-(3,4-dichlorophenyl)acetyl-5-acetoxy-1,2,3,4-tetrahydroisoquinoline hydrochloride]
ED50 (mice [1]): 0.024 mg/kg
ED50 (mice [2]): 0.005 mg/kg

CC1c2ccccc2C(CN2CCCC2)N(C(=O)Cc2ccc(Cl)c(Cl)c2)C1C (single isomer, unassigned; diastereoisomer c) [Example 47, 1-(pyrrolidin-1-yl)methyl-2-(3,4-dichlorophenyl)acetyl-3,4-dimethyl-1,2,3,4-tetrahydroisoquinoline hydrochloride diastereoisomer C]
MOUSE TAIL-FLICK ED50 (mice [1]): 8.9 mg/kg

COc1cccc2c1CCN(C(=O)Cc1ccc(C(F)(F)F)cc1)C2CN1CCCC1 (stereo not shown) [Example 33, 1-(pyrrolidin-1-yl)methyl-2-(4-trifluoromethylphenyl)acetyl5-methoxy-1,2,3,4-tetrahydroisoquinoline hydrochloride]
Ki (MU opiate receptor; [3]): 142 nM
ED50 (mice [1]): 0.306 mg/kg
ED50 (mice [2]): 0.06 mg/kg
